Data from PubChem BioAssay AID1963974 (Molecular Pharmacology Branch, DTP, NCI, 2024).

Test system: 648629-189-R-J1-PDC spheroids with HUVEC/MSC, viability
Experiment: Anticancer human tumor 648629-189-R-J1-PDC patient-derived bladder carcinoma cell line growth inhibition [PI3K]
Details: for IC50: curve of first compound; for viability, T/C: stronger effect = lower value
Outline: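 Viability of mixed-cell spheroids was determined after exposure to pairwise combinations, one partner being inavolisib, alpelisib, duvelisib or copanlisib. Highest tested concentration matched clinical Cmax where known and 10 microM where not, descending in half-log steps.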

[1] = second compound 0.00316 µM, first compound 0.0316 µM
[2] = second compound 0.00316 µM, first compound 0.1 µM
[3] = second compound 0.00316 µM, first compound 0.316 µM
[4] = second compound 0.00316 µM, first compound 1 µM
[5] = second compound 0.01 µM, first compound 0.0316 µM
[6] = second compound 0.01 µM, first compound 0.1 µM
[7] = second compound 0.01 µM, first compound 0.316 µM
[8] = second compound 0.01 µM, first compound 1 µM
[9] = second compound 0.0316 µM, first compound 0.0316 µM
[10] = second compound 0.0316 µM, first compound 0.1 µM
[11] = second compound 0.0316 µM, first compound 0.316 µM
[12] = second compound 0.0316 µM, first compound 1 µM
[13] = second compound 0.0316 µM, first compound 3.16 µM
[14] = second compound 0.0316 µM, first compound 10 µM
[15] = second compound 0.1 µM, first compound 0.0316 µM
[16] = second compound 0.1 µM, first compound 0.1 µM
[17] = second compound 0.1 µM, first compound 0.316 µM
[18] = second compound 0.1 µM, first compound 1 µM
[19] = second compound 0.1 µM, first compound 3.16 µM
[20] = second compound 0.1 µM, first compound 10 µM
[21] = second compound 0.316 µM, first compound 0.0316 µM
[22] = second compound 0.316 µM, first compound 0.1 µM
[23] = second compound 0.316 µM, first compound 0.316 µM
[24] = second compound 0.316 µM, first compound 1 µM
[25] = second compound 0.316 µM, first compound 3.16 µM
[26] = second compound 0.316 µM, first compound 10 µM
[27] = second compound 1 µM, first compound 0.0316 µM
[28] = second compound 1 µM, first compound 0.1 µM
[29] = second compound 1 µM, first compound 0.316 µM
[30] = second compound 1 µM, first compound 1 µM
[31] = second compound 1 µM, first compound 3.16 µM
[32] = second compound 1 µM, first compound 10 µM
[33] = second compound 3.16 µM, first compound 0.0316 µM
[34] = second compound 3.16 µM, first compound 0.1 µM
[35] = second compound 3.16 µM, first compound 0.316 µM
[36] = second compound 3.16 µM, first compound 1 µM
[37] = second compound 3.16 µM, first compound 3.16 µM
[38] = second compound 3.16 µM, first compound 10 µM
[39] = second compound 10 µM, first compound 0.0316 µM
[40] = second compound 10 µM, first compound 0.1 µM
[41] = second compound 10 µM, first compound 0.316 µM
[42] = second compound 10 µM, first compound 1 µM
[43] = second compound 10 µM, first compound 3.16 µM
[44] = second compound 10 µM, first compound 10 µM
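Also: spheroids exposed to agents for seven days before reading.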
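For viability, T/C in this document: percent of vehicle control luminescence where 100% = DMSO treated spheroids.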

CCCS(=O)(=O)Nc1ccc(F)c(C(=O)c2c[nH]c3ncc(-c4ccc(Cl)cc4)cc23)c1F + COc1c(OCCCN2CCOCC2)ccc2c3n(c(=NC(=O)c4cnc(N)nc4)nc12)CCN3
IC50 (second compound 0.00316 µM): 5.39 µM
IC50 (second compound 0.01 µM): 4.98 µM
IC50 (second compound 0.0316 µM): 4.21 µM
IC50 (second compound 0.1 µM): 1.76 µM
IC50 (second compound 0.316 µM): < 0.0316 µM
IC50 (second compound 1 µM): < 0.0316 µM
viability, T/C [1]: 117%
viability, T/C [2]: 96.9%
viability, T/C [3]: 92.4%
viability, T/C [4]: 100%
viability, T/C (second compound 0.00316 µM, first compound 3.16 µM): 92.7%
viability, T/C (second compound 0.00316 µM, first compound 10 µM): 0.51%
viability, T/C [5]: 89.8%
viability, T/C [6]: 87.2%
viability, T/C [7]: 100%
viability, T/C [8]: 96.4%
viability, T/C (second compound 0.01 µM, first compound 3.16 µM): 82.5%
viability, T/C (second compound 0.01 µM, first compound 10 µM): 0.3%
viability, T/C [9]: 85.8%
viability, T/C [10]: 85.3%
viability, T/C [11]: 87.8%
viability, T/C [12]: 82.5%
viability, T/C [13]: 66.4%
viability, T/C [14]: 0.81%
viability, T/C [15]: 55.4%
viability, T/C [16]: 62.3%
viability, T/C [17]: 54%
viability, T/C [18]: 60.4%
viability, T/C [19]: 42.1%
viability, T/C [20]: 1.55%
viability, T/C [21]: 22.4%
viability, T/C [22]: 19.5%
viability, T/C [23]: 18.3%
viability, T/C [24]: 21.9%
viability, T/C [25]: 16%
viability, T/C [26]: 2.22%
viability, T/C [27]: 4.16%
viability, T/C [28]: 3.42%
viability, T/C [29]: 3.84%
viability, T/C [30]: 3.92%
viability, T/C [31]: 3.43%
viability, T/C [32]: 0.43%

Cn1nccc1Nc1nccc(-c2ccn(C(CO)c3ccc(Cl)c(F)c3)c(=O)c2)n1 (stereo not drawn) + Cc1nc(NC(=O)N2CCCC2C(N)=O)sc1-c1ccnc(C(C)(C)C(F)(F)F)c1
IC50 (second compound 0.0316 µM): > 10 µM
IC50 (second compound 0.1 µM): > 10 µM
IC50 (second compound 0.316 µM): > 10 µM
IC50 (second compound 1 µM): > 10 µM
IC50 (second compound 3.16 µM): > 10 µM
IC50 (second compound 10 µM): < 0.0316 µM
viability, T/C [9]: 120%
viability, T/C [10]: 96.2%
viability, T/C [11]: 112%
viability, T/C [12]: 112%
viability, T/C [13]: 111%
viability, T/C [14]: 74.7%
viability, T/C [15]: 93.5%
viability, T/C [16]: 105%
viability, T/C [17]: 108%
viability, T/C [18]: 104%
viability, T/C [19]: 96.1%
viability, T/C [20]: 79.2%
viability, T/C [21]: 94.3%
viability, T/C [22]: 97.6%
viability, T/C [23]: 98.1%
viability, T/C [24]: 102%
viability, T/C [25]: 92.8%
viability, T/C [26]: 75.4%
viability, T/C [27]: 83.3%
viability, T/C [28]: 79.4%
viability, T/C [29]: 72.8%
viability, T/C [30]: 85.7%
viability, T/C [31]: 82.2%
viability, T/C [32]: 70.6%
viability, T/C [33]: 64.4%
viability, T/C [34]: 63.1%
viability, T/C [35]: 56.8%
viability, T/C [36]: 72.1%
viability, T/C [37]: 67.1%
viability, T/C [38]: 67.1%
viability, T/C [39]: 40.2%
viability, T/C [40]: 39.5%
viability, T/C [41]: 41.5%
viability, T/C [42]: 45.5%
viability, T/C [43]: 54.9%
viability, T/C [44]: 55.1%

CCN1CCN(Cc2ccc(Nc3ncc(F)c(-c4cc(F)c5nc(C)n(C(C)C)c5c4)n3)nc2)CC1 + CC(Nc1ccc2c(c1)OCCn1cc(N3C(=O)OCC3C(F)F)nc1-2)C(N)=O
IC50 (second compound 0.00316 µM): > 1 µM
IC50 (second compound 0.01 µM): > 1 µM
IC50 (second compound 0.0316 µM): > 1 µM
IC50 (second compound 0.1 µM): > 1 µM
IC50 (second compound 0.316 µM): > 1 µM
IC50 (second compound 1 µM): > 1 µM
viability, T/C (second compound 0.00316 µM, first compound 0.00316 µM): 105%
viability, T/C (second compound 0.00316 µM, first compound 0.01 µM): 98.8%
viability, T/C [1]: 105%
viability, T/C [2]: 113%
viability, T/C [3]: 118%
viability, T/C [4]: 119%
viability, T/C (second compound 0.01 µM, first compound 0.00316 µM): 95.5%
viability, T/C (second compound 0.01 µM, first compound 0.01 µM): 102%
viability, T/C [5]: 110%
viability, T/C [6]: 110%
viability, T/C [7]: 113%
viability, T/C [8]: 107%
viability, T/C (second compound 0.0316 µM, first compound 0.00316 µM): 105%
viability, T/C (second compound 0.0316 µM, first compound 0.01 µM): 99.2%
viability, T/C [9]: 112%
viability, T/C [10]: 95.8%
viability, T/C [11]: 121%
viability, T/C [12]: 124%
viability, T/C (second compound 0.1 µM, first compound 0.00316 µM): 96.4%
viability, T/C (second compound 0.1 µM, first compound 0.01 µM): 104%
viability, T/C [15]: 102%
viability, T/C [16]: 105%
viability, T/C [17]: 109%
viability, T/C [18]: 103%
viability, T/C (second compound 0.316 µM, first compound 0.00316 µM): 85.5%
viability, T/C (second compound 0.316 µM, first compound 0.01 µM): 82.6%
viability, T/C [21]: 99.9%
viability, T/C [22]: 98.6%
viability, T/C [23]: 90.7%
viability, T/C [24]: 96.9%
viability, T/C (second compound 1 µM, first compound 0.00316 µM): 70.8%
viability, T/C (second compound 1 µM, first compound 0.01 µM): 72.4%
viability, T/C [27]: 64.3%
viability, T/C [28]: 73.1%
viability, T/C [29]: 87.8%
viability, T/C [30]: 77.8%

C#Cc1c(F)ccc2cc(O)cc(-c3ncc4c(N5CC6CCC(C5)N6)nc(OCC56CCCN5CC(F)C6)nc4c3F)c12 (stereo not drawn) + CC(Nc1ncnc2nc[nH]c12)c1cc2cccc(Cl)c2c(=O)n1-c1ccccc1
IC50 (second compound 0.0316 µM): > 10 µM
IC50 (second compound 0.1 µM): > 10 µM
IC50 (second compound 0.316 µM): > 10 µM
IC50 (second compound 1 µM): > 10 µM
IC50 (second compound 3.16 µM): > 10 µM
IC50 (second compound 10 µM): > 10 µM
viability, T/C [9]: 116%
viability, T/C [10]: 114%
viability, T/C [11]: 103%
viability, T/C [12]: 107%
viability, T/C [13]: 105%
viability, T/C [14]: 117%
viability, T/C [15]: 116%
viability, T/C [16]: 100%
viability, T/C [17]: 104%
viability, T/C [18]: 106%
viability, T/C [19]: 117%
viability, T/C [20]: 110%
viability, T/C [21]: 102%
viability, T/C [22]: 110%
viability, T/C [23]: 101%
viability, T/C [24]: 113%
viability, T/C [25]: 116%
viability, T/C [26]: 111%
viability, T/C [27]: 92.8%
viability, T/C [28]: 104%
viability, T/C [29]: 107%
viability, T/C [30]: 114%
viability, T/C [31]: 107%
viability, T/C [32]: 94.4%
viability, T/C [33]: 92%
viability, T/C [34]: 91.4%
viability, T/C [35]: 90.7%
viability, T/C [36]: 90.1%
viability, T/C [37]: 93.4%
viability, T/C [38]: 88.1%
viability, T/C [39]: 90.7%
viability, T/C [40]: 86.1%
viability, T/C [41]: 75.7%
viability, T/C [42]: 102%
viability, T/C [43]: 92.5%
viability, T/C [44]: 80.3%
